Laboratory results: patent EP0971917B1, “THIAZOLIDINEDIONE AND OXAZOLIDINEDIONE DERIVATIVES HAVING ANTIDIABETIC, HYPOLIPIDAEMIC AND ANTIHYPERTENSIVE PROPERTIES” (DR. REDDY'S RESEARCH FOUNDATION, priority 1997, dated 1998)

Test system: C57BL/KsJ-db/db mice
Assay: Blood sugar and triglycerides lowering activity in db/db mice (in vivo)
Conditions: male C57BL/KsJ-db/db mice, 10 mg/kg/day, oral gavage daily for 6 days; for Maximum reduction in blood glucose level (%): plasma glucose, glucose oxidase method; for Triglyceride lowering (%): plasma triglycerides
Text: Mutation in colonies of laboratory animals and different sensitivities to dietary regimens have made the development of animal models with non-insulin dependent diabetes associated with obesity and insulin resistance possible. Genetic models such as db/db and ob/ob (See Diabetes, (1982) 31(1) : 1- 6) in mice and fa/fa and zucker rats have been developed by the various laboratories for understanding the pathophysiology of disease and testing the efficacy of new antidiabetic compounds (Diabetes, (1983) 32: 830-838; Annu. Rep. Sankyo Res. Lab. (1994) 46 : 1-57). The homozygous animals, C57 BL/KsJ-db/db mice developed by Jackson Laboratory, US, are obese, hyperglycemic, hyperinsulinemic and insulin resistant (J. Clin. Invest., (1990) 85 : 962-967), whereas heterozygous are lean and normoglycemic. In db/db model, mouse progressively develops insulinopenia with age, a feature commonly observed in late stages of human type II diabetes when blood sugar levels are insufficiently controlled. The state of pancreas and its course vary according to the models. Since this model resembles that of type II diabetes mellitus, the compounds of the present invention were tested for blood sugar and triglycerides lowering activities.
Male C57BL/KsJ-db/db mice of 8 to 14 weeks age, having body weight range of 35 to 60 grams, procured from the Jackson Laboraotory, USA, were used in the experiment The mice were provided with standard feed (National Institute of Nutrition, Hyderabad, India) and acidified water, ad libitum. The animals having more than 300 mg / dl blood sugar were used for testing. The number of animals in each group was 4.
The random blood sugar and triglyceride levels were measured by collecting blood (100 µl) through orbital sinus, using heparinised capillary in tubes containing EDTA which was centrifuged to obtain plasma. The plasma glucose and triglycerides levels were measured spectrometrically, by glucose oxidase and glycerol-3-PO4 oxidase/peroxidase enzyme (Dr. Reddy's Lab. Diagnostic Division Kits, Hyderabad, India) methods respectively. On 6th day the blood samples were collected one hour after administration of test compounds / vehicle for assessing the biological activity.
Test compounds were suspended on 0.25 % carboxymethyl cellulose and administered to test group at a dose of 10 mg to 100 mg / kg through oral gavage daily for 6 days. The control group received vehicle (dose 10 ml / kg).

SMILES | Maximum reduction in blood glucose level (%) | Triglyceride lowering (%)
O=C1NC(=O)C(=Cc2ccc(OCCN3OCc4ccccc4C3=O)cc2)S1 [Example 11, 5-[4-[2-[4-Oxo-3,4-dihydro-1H-2,3-benzoxazin-3-yl]ethoxy]phenylmethylene]thiazolidin-2,4-dione] | 37% | 60%
Cc1nn(CCOc2ccc(CC3SC(=O)NC3=O)cc2)c(=O)c2ccccc12 (stereo not shown) [Example 6, 5-[4-[2-[4-Methyl-1-oxo-1,2-dihydro-phthalazin-2-yl]ethoxy]phenylmethyl] thiazolidin-2,4-dione] | 61% | 40%
